According to PubChem BioAssay AID1259411 (Chemical Carcinogenesis Research Information System (CCRIS), 2018):
Calls of active or inactive are those of the source. The rule behind the calls is not given here.

System: rodent carcinogenicity bioassays, tumor incidence
Assay: CCRIS carcinogenicity studies
Excerpt: The CCRIS database contains chemical records with carcinogenicity, mutagenicity, tumor promotion, and tumor inhibition test results. It was developed by the National Cancer Institute (NCI). Data are derived from studies cited in primary journals, current awareness tools, NCI reports, and other sources. Test results have been reviewed by experts in carcinogenesis and mutagenesis.
CCRIS provides historical information from the years 1985 - 2011. It is no longer updated.
This is an archive assay for CCRIS carcinogenicity studies.

CC(C)=CCl
carcinogen call (Species: MOUSE, Strain/Sex: B6C3F1/FEMALE, Route: GAVAGE, Dose: 0, 100, 200 MG/KG IN CORN OIL 5 D/WK FOR 102 WK, Dose: 0, 100, 200 MG/KG IN CORN OIL 5 D/WK FOR 102 WK, Tumor Site: Type of Lesion: FORESTOMACH: SQUAMOUS CELL CARCINOMA, SQUAMOUS CELL PAPILLOMA): active; positive | carcinogen call (Species: MOUSE, Strain/Sex: B6C3F1/MALE, Route: GAVAGE, Dose: 0, 100, 200 MG/KG IN CORN OIL 5 D/WK FOR 102 WK, Dose: 0, 100, 200 MG/KG IN CORN OIL 5 D/WK FOR 102 WK, Tumor Site: Type of Lesion: FORESTOMACH: SQUAMOUS CELL CARCINOMA, SQUAMOUS CELL PAPILLOMA, PREPUTIAL GLAND: SQUAMOUS CELL CARCINOMA): active; positive | carcinogen call (Species: RAT, Strain/Sex: F344/FEMALE, Route: GAVAGE, Dose: 0, 100, 200 MG/KG IN CORN OIL 5 D/WK FOR 103 WK, Dose: 0, 100, 200 MG/KG IN CORN OIL 5 D/WK FOR 103 WK, Tumor Site: Type of Lesion: NASAL CAVITY: CARCINOMA (NOS), CARCINOMA (NOS) OR SQUAMOUS CELL CARCINOMA, ADENOCARCINOMA, ESOPHAGUS: SQUAMOUS CELL CARC): active; positive | carcinogen call (Species: RAT, Strain/Sex: F344/MALE, Route: GAVAGE, Dose: 0, 100, 200 MG/KG IN CORN OIL 5 D/WK FOR 103 WK, Dose: 0, 100, 200 MG/KG IN CORN OIL 5 D/WK FOR 103 WK, Tumor Site: Type of Lesion: NASAL CAVITY: CARCINOMA (NOS), SQUAMOUS CELL CARCINOMA, ADENOCARCINOMA, ESOPHAGUS: SQUAMOUS CELL PAPILLOMA, SQUAMOUS CEL): active; positive

O=[N+]([O-])c1ccc(-c2ccccc2)cc1
carcinogen call (Species: DOG, Strain/Sex: MONGREL/FEMALE, Route: ORAL, Dose: 300 MG 3/WK FOR LIFE, Tumor Site: Type of Lesion: URINARY BLADDER: EPITHELIAL CARCINOMA): active; positive | carcinogen call (Species: RAT, Strain/Sex: SPRAGUE-DAWLEY/FEMALE, Route: SUBCUTANEOUS, Dose: 0, 50, 100 UMOL/KG IN DMSO 1/WK FOR 8 WK (STUDY DURATION: 62 WK), Dose: 0, 50, 100 UMOL/KG IN DMSO 1/WK FOR 8 WK (STUDY DURATION: 62 WK)): inactive; negative | carcinogen call (Species: RAT, Strain/Sex: SPRAGUE-DAWLEY/MALE, Route: SUBCUTANEOUS, Dose: 0, 50, 100 UMOL/KG IN DMSO 1/WK FOR 8 WK (STUDY DURATION: 62 WK), Dose: 0, 50, 100 UMOL/KG IN DMSO 1/WK FOR 8 WK (STUDY DURATION: 62 WK)): inactive; negative

[Si]
carcinogen call (Species: RAT, Strain/Sex: F344/FEMALE, Route: SUBCUTANEOUS IMPLANT, Dose: 10 X 20 X 0.3 MM SHEETS IMPLANTED INTO 2 SITES IN LATERAL ABDOMINAL REGION AND 1 SITE ON THE BACK (STUDY DURATION: 741 D, Tumor Site: Type of Lesion: IMPLANT SITE: MALIGNANT HISTIOCYTOMA): active; positive

C=CC(=C)C
carcinogen call (Species: MOUSE, Strain/Sex: B6C3F1/MALE, Route: INHALATION, Dose: 0, 10, 70, 280, 700, 2200 PPM 8 HR/D 5 D/WK FOR 80 WK (STUDY DURATION: 104 WK), Dose: 0, 10, 70, 280, 700, 2200 PPM 8 HR/D 5 D/WK FOR 80 WK (STUDY DURATION: 104 WK), Tumor Site: Type of Lesion: LUNG: ALVEOLAR/BRONCHIOLAR ADENOMA OR CARCINOMA, LIVER: HEPATOCELLULAR ADENOMA OR CARCINOMA, HARDERIAN GLAND: ADENOMA, Tumor Site: Type of Lesion: LUNG: ALVEOLAR/BRONCHIOLAR ADENOMA OR CARCINOMA, LIVER: HEPATOCELLULAR ADENOMA OR CARCINOMA, HARDERIAN GLAND: ADENOMA): active; positive | carcinogen call (Species: MOUSE, Strain/Sex: B6C3F1/MALE, Route: INHALATION, Dose: 0, 70, 140, 2200 PPM 8 HR/D 5 D/WK FOR 40 WK (STUDY DURATION: 104 WK), Dose: 0, 70, 140, 2200 PPM 8 HR/D 5 D/WK FOR 40 WK (STUDY DURATION: 104 WK), Tumor Site: Type of Lesion: LUNG: ALVEOLAR/BRONCHIOLAR ADENOMA OR CARCINOMA, LIVER: HEPATOCELLULAR ADENOMA OR CARCINOMA, HARDERIAN GLAND: ADENOMA, Tumor Site: Type of Lesion: LUNG: ALVEOLAR/BRONCHIOLAR ADENOMA OR CARCINOMA, LIVER: HEPATOCELLULAR ADENOMA OR CARCINOMA, HARDERIAN GLAND: ADENOMA): active; positive | carcinogen call (Species: MOUSE, Strain/Sex: B6C3F1/MALE, Route: INHALATION, Dose: 0, 70, 220, 700, 2200, 7000 PPM 6 HR/D 5 D/WK FOR 26 WK FOLLOWED BY A 26-WK RECOVERY PERIOD (STUDY DURATION: 52 WK), Dose: 0, 70, 220, 700, 2200, 7000 PPM 6 HR/D 5 D/WK FOR 26 WK FOLLOWED BY A 26-WK RECOVERY PERIOD (STUDY DURATION: 52 WK), Tumor Site: Type of Lesion: LIVER: ADENOMA OR CARCINOMA, LUNG: ALVEOLAR/BRONCHIOLAR ADENOMA OR CARCINOMA, FORESTOMACH: PAPILLOMA OR CARCINOMA, HARDE, Tumor Site: Type of Lesion: LIVER: ADENOMA OR CARCINOMA, LUNG: ALVEOLAR/BRONCHIOLAR ADENOMA OR CARCINOMA, FORESTOMACH: PAPILLOMA OR CARCINOMA, HARDE): active; positive | carcinogen call (Species: MOUSE, Strain/Sex: B6C3F1/MALE, Route: INHALATION, Dose: 0, 280 PPM 8 HR/D 5 D/WK FOR 20 WK (STUDY DURATION: 104 WK), Tumor Site: Type of Lesion: HARDERIAN GLAND: ADENOMA, LIVER: ADENOMA): active; positive | carcinogen call (Species: MOUSE, Strain/Sex: B6C3F1/MALE, Route: INHALATION, Dose: 0, 2200 PPM 4 HR/D 5 D/WK FOR 20 WK (STUDY DURATION: 104 WK), Tumor Site: Type of Lesion: HARDERIAN GLAND: ADENOMA, LIVER: HEPATOCELLULAR ADENOMA OR CARCINOMA): active; positive | carcinogen call (Species: MOUSE, Strain/Sex: B6C3F1/MALE, Route: INHALATION, Dose: 0, 2200 PPM 4 HR/D 5 D/WK FOR 80 WK (STUDY DURATION: 104 WK), Tumor Site: Type of Lesion: LIVER: HEPATOCELLULAR ADENOMA OR CARCINOMA, HARDERIAN GLAND: ADENOMA): active; positive | carcinogen call (Species: RAT, Strain/Sex: F344/N/FEMALE, Route: INHALATION, Dose: 0, 220, 700, 7000 PPM 6 HR/D 5 D/WK FOR 105 WK (STUDY DURATION: 105 WK), Dose: 0, 220, 700, 7000 PPM 6 HR/D 5 D/WK FOR 105 WK (STUDY DURATION: 105 WK), Tumor Site: Type of Lesion: MAMMARY GLAND: FIBROADENOMA): active; positive | carcinogen call (Species: RAT, Strain/Sex: F344/N/MALE, Route: INHALATION, Dose: 0, 220, 700, 7000 PPM 6 HR/D 5 D/WK FOR 105 WK (STUDY DURATION: 105 WK), Dose: 0, 220, 700, 7000 PPM 6 HR/D 5 D/WK FOR 105 WK (STUDY DURATION: 105 WK), Tumor Site: Type of Lesion: KIDNEY: ADENOMA OR CARCINOMA, MAMMARY GLAND: FIBROADENOMA OR CARCINOMA, TESTES: ADENOMA, Tumor Site: Type of Lesion: KIDNEY: ADENOMA OR CARCINOMA, MAMMARY GLAND: FIBROADENOMA OR CARCINOMA, TESTES: ADENOMA): active; positive

ClC(Cl)(Cl)c1ccccc1
carcinogen call (Species: MOUSE, Strain/Sex: ICR/FEMALE, Route: GAVAGE, Dose: 0, 0.0315, 0.125, 0.5, 2 µL IN STERILIZED SESAME OIL 2/WK FOR 25 WK (STUDY DURATION: 18 MO), Dose: 0, 0.0315, 0.125, 0.5, 2 µL IN STERILIZED SESAME OIL 2/WK FOR 25 WK (STUDY DURATION: 18 MO), Tumor Site: Type of Lesion: FORESTOMACH: SQUAMOUS CELL CARCINOMA, LUNG: ADENOCARCINOMA OR ADENOMA, HEMATOPOIETIC SYSTEM: TUMORS, Tumor Site: Type of Lesion: FORESTOMACH: SQUAMOUS CELL CARCINOMA, LUNG: ADENOCARCINOMA OR ADENOMA, HEMATOPOIETIC SYSTEM: TUMORS): active; positive

CCCC1O[C@@H]2C[C@H]3[C@@H]4CCC5=CC(=O)C=C[C@]5(C)[C@H]4[C@@H](O)C[C@]3(C)[C@]2(C(=O)CO)O1 (stereo partly drawn)
carcinogen call (Species: RAT, Strain/Sex: SPRAGUE-DAWLEY/MALE, Route: ORAL, Dose: 0, 5 UG/ML IN DRINKING WATER FOR AN AVERAGE DAILY DOSE OF 46.6 UG/KG FOR 104 WK (STUDY DURATION: 104 WK), Tumor Site: Type of Lesion: LIVER: HEPATOCELLULAR ADENOMA OR CARCINOMA): active; positive
